{"source": "patent US20220378756A1", "about": "“ACTIVATING PYRUVATE KINASE R” (FORMA Therapeutics, Inc., priority 2019, published 2022)", "test_system": "2,3-DPG, ATP and p50 in blood", "assay": "Phase 1 SAD/MAD, healthy volunteers: pharmacodynamics", "format": "in vivo, human", "settings": "for Median Percentage Change in 2,3-DPG Levels: HV", "text": "This is a first-in-human (FIH), Phase 1 study of Compound 1 that will characterize the safety, PK, and PD of Compound 1 after a single dose and after repeated dosing first in healthy adult volunteers and then in adolescents or adults with sickle cell disease. Initially, a dose range of Compound 1 in single ascending dose (SAD) escalation cohorts will be explored in healthy subjects. Enrollment of healthy subjects into 2-week multiple ascending dose (MAD) escalation cohorts will be initiated once the safety and PK from at least two SAD cohorts is available to inform the doses for the 2-week MAD portion of the study. The MAD cohorts will then run in parallel to the single dose cohorts. A single dose cohort is planned to understand food effects (FE) on the PK of Compound 1. […] Multiple dose studies in SCD subjects will then be initiated upon completion of MAD studies in healthy volunteers. Compound 1 will be administered in 25 mg and 100 mg tablets delivered orally.\nIn this study, SAD/MAD cohorts are randomized (3 to 1) to receive Compound 1 or placebo (P). Compound 1 was evaluated first in 4 healthy SAD cohorts and 4 healthy MAD (14-day dosing period) cohorts. Based on the safety, and PK/PD profile from HS, Compound 1 is then evaluated in 1 SCD SAD cohort and 2 SCD MAD cohorts. Specifically, based on the safety and pharmacokinetic/pharmacodynamics (PK/PD) profile in healthy volunteer studies, Compound 1 is evaluated in patients (pts) with SCD, first in a single dose (SD or SAD) cohort and then in multiple-dose (MD or MAD) cohorts (14-day and 12-week). Safety assessments include AEs, vital signs, ECGs and laboratory parameters. PK/PD blood sampling was performed on Day 1 (SAD/MAD) and Day 14 (MAD) and up to 72 h after the last dose and at the end-of-study visit. PD parameters included 2,3-DPG, ATP, and p50 in all cohorts with additional PD studies (including oxygen scan) performed only in the SCD cohorts. PD parameters included 2,3-DPG, ATP, p50, RBC deformability with controlled deoxygenation and reoxygenation (Lorrca® oxygen scan) and varying osmolality (Lorrca® osmoscan)). To maintain study blind, pt identifiers were removed when needed.\nFour healthy SAD cohorts were evaluated at doses of 200, 400, 700, and 1000 mg, and four healthy MAD cohorts received 200 to 600 mg total daily doses for 14 days at QD or BID dosing (100 mg BID, 200 mg BID, 300 mg BID, and 400 mg QD). In the food effect (FE) cohort, 10 healthy subjects received 200 mg of Compound 1 QD with and without food.\nIn the SAD cohorts, the subjects' blood 2,3-DPG levels were measured periodically after dosing by a qualified LC-MS/MS method for the quantitation of 2,3-DPG in blood. Decreased 2,3-DPG blood levels were observed 6 hours following a single dose of Compound 1 at all dose levels (earlier timepoints were not collected). Maximum decreases in 2,3-DPG levels generally occurred ˜24 hours after the first dose with the reduction sustained ˜48-72 hr postdose. Table 16 reports the median percentage change in 2,3-DPG blood levels, relative to baseline, measured over time in healthy volunteers after a single dose of Compound 1 (200 mg, 400 mg, 700 mg, or 1000 mg) or placebo. Accordingly, the median reduction in the concentration of 2,3-DPG, relative to baseline, was at least about […] at all dose levels tested 24 hours after administration of the single dose.\nIn the MAD cohorts, the subjects' blood 2,3-DPG levels were measured periodically after dosing by a qualified LC-MS/MS method for the quantitation of 2,3-DPG in blood. The maximum decrease in 2,3-DPG on Day 14 was 55% from baseline (median). […] Table 18 reports the median percentage change in 2,3-DPG blood levels, relative to baseline, measured over time after the first dose on days 1 and 14 in healthy volunteers who received daily doses of Compound 1 (100 mg BID, 200 mg BID, or 300 mg BID) or placebo for 14 days. […]", "key": {"[1]": {"settings": "MAD, N = 36, all doses and timepoints"}, "[2]": {"settings": "SAD, N = 24, all doses and timepoints"}}, "data": [{"smiles": "O=C([C@H](CO)c1ccccc1)N1CC2=C(C1)CN(S(=O)(=O)c1cnc3c(c1)OCCO3)C2", "note": "(single isomer, unassigned) [Compound 1]", "values": [{"measurement": "Median Percentage Change in 2,3-DPG Levels", "setting": "300 mg BID, Day 1, 16 h after first daily dose", "result": "−40.7", "unit": "%"}, {"measurement": "Median Percentage Change in 2,3-DPG Levels", "setting": "300 mg BID, Day 1, 24 h after first daily dose", "result": "−50.8", "unit": "%"}, {"measurement": "Median Percentage Change in 2,3-DPG Levels", "setting": "300 mg BID, Day 14, 0 h after first daily dose", "result": "−59.4", "unit": "%"}, {"measurement": "Median Percentage Change in 2,3-DPG Levels", "setting": "300 mg BID, Day 14, 6 h after first daily dose", "result": "−53.0", "unit": "%"}, {"measurement": "Median Percentage Change in 2,3-DPG Levels", "setting": "300 mg BID, Day 14, 8 h after first daily dose", "result": "−54.2", "unit": "%"}, {"measurement": "Median Percentage Change in 2,3-DPG Levels", "setting": "300 mg BID, Day 14, 12 h after first daily dose", "result": "−55.3", "unit": "%"}, {"measurement": "Median Percentage Change in 2,3-DPG Levels", "setting": "300 mg BID, Day 14, 16 h after first daily dose", "result": "−52.4", "unit": "%"}, {"measurement": "Median Percentage Change in 2,3-DPG Levels", "setting": "300 mg BID, Day 14, 24 h after first daily dose", "result": "−52.1", "unit": "%"}, {"measurement": "Median Percentage Change in 2,3-DPG Levels", "setting": "300 mg BID, Day 14, 48 h after first daily dose", "result": "−44.5", "unit": "%"}, {"measurement": "Median Percentage Change in 2,3-DPG Levels", "setting": "300 mg BID, Day 14, 72 h after first daily dose", "result": "−32.9", "unit": "%"}, {"measurement": "Median Percentage Change in 2,3-DPG Levels", "setting": "single dose 200 mg, 0 h after dose", "result": 0.0, "unit": "%"}, {"measurement": "Median Percentage Change in 2,3-DPG Levels", "setting": "single dose 200 mg, 6 h after dose", "result": "−18", "unit": "%"}, {"measurement": "Median Percentage Change in 2,3-DPG Levels", "setting": "single dose 200 mg, 8 h after dose", "result": "−17", "unit": "%"}, {"measurement": "Median Percentage Change in 2,3-DPG Levels", "setting": "single dose 200 mg, 12 h after dose", "result": "−25", "unit": "%"}, {"measurement": "Median Percentage Change in 2,3-DPG Levels", "setting": "single dose 200 mg, 16 h after dose", "result": "−33", "unit": "%"}, {"measurement": "Median Percentage Change in 2,3-DPG Levels", "setting": "single dose 200 mg, 24 h after dose", "result": "−31", "unit": "%"}, {"measurement": "Median Percentage Change in 2,3-DPG Levels", "setting": "single dose 200 mg, 36 h after dose", "result": "−33", "unit": "%"}, {"measurement": "Median Percentage Change in 2,3-DPG Levels", "setting": "single dose 200 mg, 48 h after dose", "result": "−29", "unit": "%"}, {"measurement": "Median Percentage Change in 2,3-DPG Levels", "setting": "single dose 200 mg, 72 h after dose", "result": "−18", "unit": "%"}, {"measurement": "Median Percentage Change in 2,3-DPG Levels", "setting": "single dose 400 mg, 0 h after dose", "result": 0.0, "unit": "%"}, {"measurement": "Median Percentage Change in 2,3-DPG Levels", "setting": "single dose 400 mg, 6 h after dose", "result": "−23", "unit": "%"}, {"measurement": "Median Percentage Change in 2,3-DPG Levels", "setting": "single dose 400 mg, 8 h after dose", "result": "−29", "unit": "%"}, {"measurement": "Median Percentage Change in 2,3-DPG Levels", "setting": "single dose 400 mg, 12 h after dose", "result": "−40", "unit": "%"}, {"measurement": "Median Percentage Change in 2,3-DPG Levels", "setting": "single dose 400 mg, 16 h after dose", "result": "−35", "unit": "%"}, {"measurement": "Median Percentage Change in 2,3-DPG Levels", "setting": "single dose 400 mg, 24 h after dose", "result": "−39", "unit": "%"}, {"measurement": "Median Percentage Change in 2,3-DPG Levels", "setting": "single dose 400 mg, 36 h after dose", "result": "−38", "unit": "%"}, {"measurement": "Median Percentage Change in 2,3-DPG Levels", "setting": "single dose 400 mg, 48 h after dose", "result": "−31", "unit": "%"}, {"measurement": "Median Percentage Change in 2,3-DPG Levels", "setting": "single dose 400 mg, 72 h after dose", "result": "−30", "unit": "%"}, {"measurement": "Median Percentage Change in 2,3-DPG Levels", "setting": "single dose 700 mg, 0 h after dose", "result": 0.0, "unit": "%"}, {"measurement": "Median Percentage Change in 2,3-DPG Levels", "setting": "single dose 700 mg, 6 h after dose", "result": "−29", "unit": "%"}, {"measurement": "Median Percentage Change in 2,3-DPG Levels", "setting": "single dose 700 mg, 8 h after dose", "result": "−28", "unit": "%"}, {"measurement": "Median Percentage Change in 2,3-DPG Levels", "setting": "single dose 700 mg, 12 h after dose", "result": "−41", "unit": "%"}, {"measurement": "Median Percentage Change in 2,3-DPG Levels", "setting": "single dose 700 mg, 16 h after dose", "result": "−46", "unit": "%"}, {"measurement": "Median Percentage Change in 2,3-DPG Levels", "setting": "single dose 700 mg, 24 h after dose", "result": "−49", "unit": "%"}, {"measurement": "Median Percentage Change in 2,3-DPG Levels", "setting": "single dose 700 mg, 36 h after dose", "result": "−46", "unit": "%"}, {"measurement": "Median Percentage Change in 2,3-DPG Levels", "setting": "single dose 700 mg, 48 h after dose", "result": "−48", "unit": "%"}, {"measurement": "Median Percentage Change in 2,3-DPG Levels", "setting": "single dose 700 mg, 72 h after dose", "result": "−33", "unit": "%"}, {"measurement": "Median Percentage Change in 2,3-DPG Levels", "setting": "single dose 1000 mg, 0 h after dose", "result": 0.0, "unit": "%"}, {"measurement": "Median Percentage Change in 2,3-DPG Levels", "setting": "single dose 1000 mg, 6 h after dose", "result": "−20", "unit": "%"}, {"measurement": "Median Percentage Change in 2,3-DPG Levels", "setting": "single dose 1000 mg, 8 h after dose", "result": "−31", "unit": "%"}, {"measurement": "Median Percentage Change in 2,3-DPG Levels", "setting": "single dose 1000 mg, 12 h after dose", "result": "−44", "unit": "%"}, {"measurement": "Median Percentage Change in 2,3-DPG Levels", "setting": "single dose 1000 mg, 16 h after dose", "result": "−50", "unit": "%"}, {"measurement": "Median Percentage Change in 2,3-DPG Levels", "setting": "single dose 1000 mg, 24 h after dose", "result": "−48", "unit": "%"}, {"measurement": "Median Percentage Change in 2,3-DPG Levels", "setting": "single dose 1000 mg, 36 h after dose", "result": "−47", "unit": "%"}, {"measurement": "Median Percentage Change in 2,3-DPG Levels", "setting": "single dose 1000 mg, 48 h after dose", "result": "−47", "unit": "%"}, {"measurement": "Median Percentage Change in 2,3-DPG Levels", "setting": "single dose 1000 mg, 72 h after dose", "result": "−21", "unit": "%"}, {"measurement": "mean maximum reduction in the concentration of 2,3-DPG", "setting": "MAD study", "result": "at least 50%"}, {"measurement": "mean maximum reduction in the concentration of 2,3-DPG, range", "setting": "MAD study", "result": "46.1-63.6%"}, {"measurement": "Mean Maximum Percent Change from Baseline, 2,3-DPG", "setting": "[1]", "result": "−56.3", "unit": "%"}, {"measurement": "Mean Maximum Percent Change from Baseline, ATP", "setting": "[1]", "result": 68.5, "unit": "%"}, {"measurement": "mean maximum reduction in the concentration of 2,3-DPG", "setting": "SAD study", "result": "at least 40%"}, {"measurement": "mean maximum reduction in the concentration of 2,3-DPG, range", "setting": "SAD study", "result": "35.4-56.1%"}, {"measurement": "Mean Maximum Percent Change from Baseline, 2,3-DPG", "setting": "[2]", "result": "−46.8", "unit": "%"}, {"measurement": "Mean Maximum Percent Change from Baseline, ATP", "setting": "[2]", "result": 24.4, "unit": "%"}]}]}
